Measurements: patent US12145927B2 (BRISTOL-MYERS SQUIBB COMPANY, priority 2018, dated 2024)

target: T1, human IDO1 (Homo sapiens, UniProt P14902); experiment: IDO inhibition assay in human IDO1/HEK293 cells (IDO1 HEK Human); type: cell-based; details: HEK293 cells stably expressing human IDO1; 20 hours incubation; absorbance at 490 nm after Ehrlich reagent
T1 construct: expressed in transfected cells
Description: HEK293 cells were transfected with a pCDNA-based mammalian expression vector harboring human IDO1 cDNA (NM 002164.2) by electroporation. They were cultured in medium (DMEM with 10% FBS) containing 1 mg/ml G418 for two weeks. Clones of HEK293 cells that stably expressed human IDO1 protein were selected and expanded for IDO inhibition assay.
The human IDO1/HEK293 cells were seeded at 10,000 cells per 50 μL per well with RPMI/phenol red free media contains 10% FBS in a 384-well black wall clear bottom tissue culture plate (Matrix Technologies LLC) 100 nL of certain concentration of compound was then added to each well using ECHO liquid handling systems. The cells were incubated for 20 hours in 37° C. incubator with 5% CO2.
The compound treatments were stopped by adding trichloroacetic acid (Sigma-Aldrich) to a final concentration at 0.2%. The cell plate was further incubated at 50° C. for 30 minute. The equal volume supernatant (20 μL) and 0.2% (w/v) Ehrlich reagent (4-dimethylaminobenzaldehyde, Sigma-Aldrich) in glacial acetic acid were mixed in a new clear bottom 384-well plate. This plate was then incubated at RT for 30 minute. The absorbance at 490 nm was measured on Envision plate reader.
Compound IC50 values were calculated using the counts of 500 nM of a reference standard treatment as one hundred percent inhibition, and counts of no compound but DMSO treatment as zero percent inhibition.

T1 sequence (P14902 whole entry): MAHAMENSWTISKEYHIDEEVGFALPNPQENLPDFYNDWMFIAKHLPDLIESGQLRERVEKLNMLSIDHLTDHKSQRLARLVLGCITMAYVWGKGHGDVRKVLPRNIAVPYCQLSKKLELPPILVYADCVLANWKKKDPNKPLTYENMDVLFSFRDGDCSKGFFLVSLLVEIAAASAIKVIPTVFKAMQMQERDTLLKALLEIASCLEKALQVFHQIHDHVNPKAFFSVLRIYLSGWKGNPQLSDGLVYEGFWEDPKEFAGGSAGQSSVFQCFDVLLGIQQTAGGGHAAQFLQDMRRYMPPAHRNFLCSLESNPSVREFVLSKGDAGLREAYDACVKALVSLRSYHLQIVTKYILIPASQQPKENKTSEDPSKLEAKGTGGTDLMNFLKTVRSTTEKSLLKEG

Going from `Cc1cc(NC(=O)Nc2cc(-c3ccccc3-c3nnn[nH]3)cc3c2OCCCC3c2ccccc2)no1` (stereo not shown) [Example 15, 1-(7-(2-(1H-tetrazol-5-yl)phenyl)-5-phenyl-2,3,4,5-tetrahydrobenzo[b]oxepin-9-yl)-3-(5-methylisoxazol-3-yl)urea] to `Cc1ccc(NC(=O)Nc2cc(-c3ccccc3-c3nnn[nH]3)cc3c2OCCCC3c2ccccc2)nc1` (stereo not shown) [Example 17, 1-(7-(2-(1H-tetrazol-5-yl)phenyl)-5-phenyl-2,3,4,5-tetrahydrobenzo[b]oxepin-9-yl)-3-(5-methylpyridin-2-yl)urea], the IC50 falls from 232 nM to 53 nM (4.4-fold).

First: Cc1ccc(-c2noc(Nc3cc(-c4ccccc4-c4nnn[nH]4)cc4c3OCCCC4c3ccccc3)n2)cc1 (single isomer, unassigned) [26 (En. 1), N-(7-(2-(1H-tetrazol-5-yl)phenyl)-5-phenyl-2,3,4,5-tetrahydrobenzo[b]oxepin-9-yl)-3-(p-tolyl)-1,2,4-oxadiazol-5-amine]
Second: Cc1ccc(Nc2cc(-c3ccccc3-c3nnn[nH]3)cc3c2OCCCC3c2ccccc2)nc1 (single isomer, unassigned) [62 (En. 2), N-(7-(2-(1H-tetrazol-5-yl)phenyl)-5-phenyl-2,3,4,5-tetrahydrobenzo[b]oxepin-9-yl)-5-methylpyridin-2-amine]
The IC50 of the first is 57-fold higher: 2560 nM for the first, 44.9 nM for the second.

Going from `Cc1ccc(NC(=O)Nc2cc(-c3cc(F)ccc3C(=O)O)cc3c2O[C@@H](C)[C@H]3CCC(F)(F)F)cc1` (relative stereo) [Example 117, rel-4-fluoro-2-((2R,3R)-2-methyl-7-(3-(p-tolyl)ureido)-3-(3,3,3-trifluoropropyl)-2,3-dihydrobenzofuran-5-yl)benzoic acid] to `Cc1ccc(NC(=O)Nc2cc(-c3cc(F)ccc3C(=O)O)cc3c2O[C@@H](C)[C@@H]3CCC(F)(F)F)cc1` (relative stereo) [Example 119, rel-4-fluoro-2-((2R,3S)-2-methyl-7-(3-(p-tolyl)ureido)-3-(3,3,3-trifluoropropyl)-2,3-dihydrobenzofuran-5-yl)benzoic acid], the IC50 falls from 2500 nM to 785 nM (3.2-fold).

Going from `Cc1ccc(CC(=O)Nc2cc(-c3ccccc3-c3nnn[nH]3)cc3c2OCCCC3C2CC2)cc1` (single isomer, unassigned) [37 (En. 2), N-(7-(2-(1H-tetrazol-5-yl)phenyl)-5-cyclopropyl-2,3,4,5-tetrahydrobenzo[b]oxepin-9-yl)-2-(p-tolyl)acetamide] to `Cc1ccc(NC(=O)Nc2cc(-c3ccccc3-c3nnn[nH]3)cc3c2OCCCC3C2CC2)cc1` (racemic) [Example 36, 1-(7-(2-(1H-tetrazol-5-yl)phenyl)-5-cyclopropyl-2,3,4,5-tetrahydrobenzo[b]oxepin-9-yl)-3-(p-tolyl)urea], the IC50 falls from 30.8 nM to 7.6 nM (4.1-fold). The second is the more potent here.

Compared with `Cc1ccc(CC(=O)Nc2cc(-c3ccccc3-c3nnn[nH]3)cc3c2OCCCC3C(C)C)cc1` (racemic) [25 (Rac), N-(7-(2-(1H-tetrazol-5-yl)phenyl)-5-isopropyl-2,3,4,5-tetrahydrobenzo[b]oxepin-9-yl)-2-(p-tolyl)acetamide], `CCC(C)C1CCCOc2c(NC(=O)Cc3ccc(C)cc3)cc(-c3ccccc3-c3nnn[nH]3)cc21` (single isomer, unassigned) [30 (En. 1), N-(7-(2-(1H-tetrazol-5-yl)phenyl)-5-(sec-butyl)-2,3,4,5-tetrahydrobenzo[b]oxepin-9-yl)-2-(p-tolyl)acetamide] is 7.3-fold lower in IC50: 29.9 nM for the first, 4.1 nM for the second. The second is the more potent here.

`C=C[C@H]1Oc2c(NC(=O)Nc3ccc(C)cc3)cc(-c3ccccc3-c3nnn[nH]3)cc2[C@@H]1CCC(F)(F)F` (single isomer, unassigned) [Example 129, 1-((trans)-5-(2-(1H-tetrazol-5-yl)phenyl)-3-(3,3,3-trifluoropropyl)-2-vinyl-2,3-dihydrobenzofuran-7-yl)-3-(p-tolyl)urea] and `CCC1Oc2c(NC(=O)Nc3ccc(C)cc3)cc(-c3ccccc3-c3nnn[nH]3)cc2C1CCC(F)(F)F` (racemic) [Example 102] are within 1.5-fold of each other in IC50: 16 nM for the first, 13 nM for the second.

Compared with `Cc1cnc(Nc2cc(-c3ccccc3-c3nnn[nH]3)cc3c2OCCCC3c2ccccc2)nc1` (racemic) [55 (Rac), N-(7-(2-(1H-tetrazol-5-yl)phenyl)-5-phenyl-2,3,4,5-tetrahydrobenzo[b]oxepin-9-yl)-5-methylpyrimidin-2-amine], `c1ccc(C2CCCOc3c(Nc4nc5ccccc5o4)cc(-c4ccccc4-c4nnn[nH]4)cc32)cc1` (single isomer, unassigned) [53 (En. 2), N-(7-(2-(1H-tetrazol-5-yl)phenyl)-5-phenyl-2,3,4,5-tetrahydrobenzo[b]oxepin-9-yl) benzo[d] oxazol-2-amine] is 120-fold lower in IC50: 155 nM for the first, 1.3 nM for the second.

Compared with `Cc1ccc(NC(=O)Nc2cc(-c3ccccc3-c3nc(=O)o[nH]3)cc3c2OCCCC3C2CC2)cc1` (single isomer, unassigned) [Example 33-2, 1-(5-cyclopropyl-7-(2-(5-oxo-2,5-dihydro-1,2,4-oxadiazol-3-yl)phenyl)-2,3,4,5-tetrahydrobenzo[b]oxepin-9-yl)-3-(p-tolyl)urea], `Cc1ccc(NC(=O)Nc2cc(-c3ccccc3-c3nnn[nH]3)cc3c2OCCC(C)C3C)cc1` (mixture of isomers) [Example 69, 1-(7-(2-(1H-tetrazol-5-yl)phenyl)-4,5-dimethyl-2,3,4,5-tetrahydrobenzo[b]oxepin-9-yl)-3-(p-tolyl)urea] is 1.8-fold higher in IC50: 8 nM for the first, 14.6 nM for the second. The first is the more potent here.

Going from `Cc1ccc(-c2nnn[nH]2)c(-c2cc(Nc3ccc(Cl)cc3)c3c(c2)C(c2ccccc2)CCCO3)c1` (single isomer, unassigned) [Example 78, N-(4-chlorophenyl)-7-(5-methyl-2-(1H-tetrazol-5-yl)phenyl)-5-phenyl-2,3,4,5-tetrahydrobenzo[b]oxepin-9-amine] to `Cc1ccc(CC(=O)Nc2cc(-c3ccccc3-c3nnn[nH]3)cc3c2OCCCC3c2ccccc2)cc1` (racemic) [Example 2-1, N-(7-(2-(1H-tetrazol-5-yl)phenyl)-5-phenyl-2,3,4,5-tetrahydrobenzo[b]oxepin-9-yl)-2-(p-tolyl)acetamide], the IC50 rises from 8.5 nM to 98.2 nM (12-fold). The first is the more potent here.

`CC1(C)Oc2c(NC(=O)Nc3ccc(C(F)(F)F)nc3)cc(-c3ccccc3C(=O)O)cc2C1c1ccccc1` (racemic) [Example 128, (±)-2-(2,2-Dimethyl-3-phenyl-7-(3-(6-(trifluoromethyl)pyridin-3-yl)ureido)-2,3-dihydrobenzofuran-5-yl)benzoic acid] and `CC1(C)Oc2c(NC(=O)Nc3ccc(C(F)(F)F)nc3)cc(-c3ccccc3-c3nnn[nH]3)cc2C1c1ccccc1` (racemic) [Example 127, (±)-1-(5-(2-(1H-Tetrazol-5-yl)phenyl)-2,2-dimethyl-3-phenyl-2,3-dihydrobenzofuran-7-yl)-3-(6-(trifluoromethyl)pyridin-3-yl)urea] are within 1.5-fold of each other in IC50: 2300 nM for the first, 2100 nM for the second.

Compared with `O=C(Nc1ccccc1F)Nc1cc(-c2ccccc2-c2nnn[nH]2)cc2c1OCCCC2c1ccccc1` (single isomer, unassigned) [10 (En.2), 1-(7-(2-(1H-tetrazol-5-yl)phenyl)-5-phenyl-2,3,4,5-tetrahydrobenzo[b]oxepin-9-yl)-3-(2-fluorophenyl)urea], `O=C(Nc1ccc(F)cc1F)Nc1cc(-c2ccccc2-c2nnn[nH]2)cc2c1OCCCC2c1ccccc1` (stereo not shown) [Example 21, 1-(7-(2-(1H-tetrazol-5-yl)phenyl)-5-phenyl-2,3,4,5-tetrahydrobenzo[b]oxepin-9-yl)-3-(2,4-difluorophenyl)urea] is 4.3-fold higher in IC50: 41.4 nM for the first, 177 nM for the second. The first is the more potent here.

Compared with `Cc1ccc(NC(=O)Nc2cc(-c3ccccc3-c3nnn[nH]3)cc3c2OCCC3c2ccccc2)cc1` (racemic) [Example 132, (+/−)-1-(6-(2-(2H-tetrazol-5-yl)phenyl)-4-phenylchroman-8-yl)-3-(p-tolyl)urea], `C=C[C@@H]1Oc2c(NC(=O)Nc3ccc(C)cc3)cc(-c3ccccc3-c3nnn[nH]3)cc2[C@H]1c1ccccc1` (single isomer, unassigned) [Example 89, 1-((trans)-5-(2-(1H-tetrazol-5-yl)phenyl)-3-phenyl-2-vinyl-2,3-dihydrobenzofuran-7-yl)-3-(p-tolyl)urea] is 1.6-fold lower in IC50: 21.2 nM for the first, 13 nM for the second.

Going from `CC1(C)Oc2c(NC(=O)Nc3ccccc3F)cc(-c3ccccc3-c3nnn[nH]3)cc2C1c1ccccc1` (racemic) [Example 125, (±)-1-(5-(2-(1H-Tetrazol-5-yl)phenyl)-2,2-dimethyl-3-phenyl-2,3-dihydrobenzofuran-7-yl)-3-(2-fluorophenyl)urea] to `C=C[C@@H]1Oc2c(NC(=O)Nc3ccc(C)cc3)cc(-c3ccccc3-c3nn[nH]n3)cc2[C@@H]1c1ccccc1` (racemic) [Example 86, (+/−)-1-((cis)-5-(2-(1H-tetrazol-5-yl)phenyl)-3-phenyl-2-vinyl-2,3-dihydrobenzofuran-7-yl)-3-(p-tolyl)urea], the IC50 falls from 92 nM to 12 nM (7.7-fold). The second is the more potent here.

Going from `O=C(Nc1cc(-c2ccccc2-c2nnn[nH]2)cc2c1OCCCC2c1ccccc1)NC1CC1` (single isomer, unassigned) [23 (En. 1), 1-(7-(2-(1H-tetrazol-5-yl)phenyl)-5-phenyl-2,3,4,5-tetrahydrobenzo[b]oxepin-9-yl)-3-cyclopropylurea] to `Cc1ccc(CC(=O)Nc2cc(-c3ccccc3-c3nnn[nH]3)cc3c2OCCCC3C(C)C)cc1` (single isomer, unassigned) [25 (En. 2), N-(7-(2-(1H-tetrazol-5-yl)phenyl)-5-isopropyl-2,3,4,5-tetrahydrobenzo[b]oxepin-9-yl)-2-(p-tolyl)acetamide], the IC50 falls from 3500 nM to 71.4 nM (49-fold). The second is the more potent here.
